System: type II collagen-induced arthritis of rats
Experiment: Effects on type II collagen-induced arthritis (hind paw volume)
Assay type: in vivo, rat
Settings: rats (female) sensitized with bovine type II collagen; test compound 6 mg/kg orally immediately before, 7 and 14 days after primary sensitization; average of eight per group; FIG. 1
Method: 1) Effects on Type II Collagen-Induced Arthritis
Model of type II collagen-induced arthritis has been widely used as an animal model for evaluating effects of drugs on rheumatic diseases (Nature, 283, 666-668 (1980)). Anti-arthritic effects of the present compounds were evaluated and studied according to this model.
A solution of bovine joint cartilage-derived type II collagen in 0.05 N acetic acid (2 mg/ml) was mixed with Freund's incomplete adjuvant of the same volume to prepare an emulsion (final concentration: 1 mg/ml).
As a primary sensitization, this emulsion was injected intradermally into five sites on the back of each rat (female, seven weeks old, weight: approximately 130 to 160 g) at a dose of 100 μl (total 500 μl: corresponding to 500 μg of type II collagen per rat). Seven days after the primary sensitization, 100 μl of this emulsion was injected intradermally into a root of the rat tail again (secondary sensitization). 0.5 ml/kg of a test compound solution (the test compound was dissolved in a 5% carboxymethylcellulose solution as a vehicle) was orally administered immediately before the primary sensitization, 7 days after the primary sensitization and 14 days after the primary sensitization. The dosage of test compound was adjusted to 6 mg/kg. […]

Question: For `Nc1ccccc1NC(=O)c1ccc(CNC(=O)COc2cccnc2)cc1` [Test compound 2, N-(2-aminophenyl)-4-[N-(pyridin-3 yl)oxyacetylaminomethyl]benzamide], which “increase in hind paw volume” value is on record?
Answer: Its value is “any increase in hind paw volume could not be found”.

Source: patent US20050215601A1, “Therapeutic agent for rheumatic disease comprising benzamide derivative as active ingredient” (SANTEN PHARMACEUTICAL CO., LTD., priority 2002, published 2005)
